From PubChem BioAssay AID248 (DTP/NCI, 2004)
Several values for one entry are separate records, joined by “and”; a condition that tells them apart may be missing. Identical values can stand only once. Toxic doses and inconclusive results are not listed. Cut-off read from the data, not from the text of the source: active = T/C of 150% or more; inactive = T/C below 125%.

System: L1210 leukemia ip in BDF1 mice, survival T/C
Experiment: NCI In Vivo Anticancer Drug Screen. Data for tumor model L1210 Leukemia (intraperitoneal) in B6D2F1 (BDF1) mice
Settings: endpoint: mean survival time, higher = longer survival
Procedure, shortened: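 Tumor cells were implanted, animals were treated, and survival was followed. The result divides the treated measurement by the vehicle-control measurement.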

[1] = dose: 100.0 mg/kg/injection, schedule: Q01DX001 (ip), vehicle: saline
[2] = dose: 200.0 mg/kg/injection, schedule: Q01DX001 (ip), vehicle: saline
[3] = dose: 400.0 mg/kg/injection, schedule: Q01DX001 (ip), vehicle: saline
[4] = dose: 100.0 mg/kg/injection, schedule: Q04DX002 (ip), vehicle: saline with Tween-80
[5] = dose: 200.0 mg/kg/injection, schedule: Q04DX002 (ip), vehicle: saline with Tween-80
[6] = dose: 400.0 mg/kg/injection, schedule: Q04DX002 (ip), vehicle: saline with Tween-80
[7] = dose: 100.0 mg/kg/injection, schedule: Q04DX002 (ip), vehicle: Klucel (hydroxypropylcellulose) (HPC)
[8] = dose: 200.0 mg/kg/injection, schedule: Q04DX002 (ip), vehicle: Klucel (hydroxypropylcellulose) (HPC)
[9] = dose: 400.0 mg/kg/injection, schedule: Q04DX002 (ip), vehicle: Klucel (hydroxypropylcellulose) (HPC)
[10] = dose: 100.0 mg/kg/injection, schedule: Q04DX003 (ip), vehicle: Klucel (hydroxypropylcellulose) (HPC)
[11] = dose: 200.0 mg/kg/injection, schedule: Q04DX003 (ip), vehicle: Klucel (hydroxypropylcellulose) (HPC)
[12] = dose: 400.0 mg/kg/injection, schedule: Q04DX003 (ip), vehicle: Klucel (hydroxypropylcellulose) (HPC)
[13] = dose: 100.0 mg/kg/injection, schedule: Q01DX009 (ip), vehicle: Klucel (hydroxypropylcellulose) (HPC)
[14] = dose: 200.0 mg/kg/injection, schedule: Q01DX009 (ip), vehicle: Klucel (hydroxypropylcellulose) (HPC)

Measured: T/C

NCCCC(=O)NC(Cc1cnc[nH]1)C(=O)O (configuration not stated)
inactive: [1] 95 % of control | [2] 97 % of control | [3] 92 % of control

O=[N+]([O-])c1c(Cl)sc(Cl)c1[N+](=O)[O-]
inactive: dose: 3.13 mg/kg/injection, schedule: Q01DX009 (ip), vehicle: saline sonified 98 % of control | dose: 6.25 mg/kg/injection, schedule: Q01DX009 (ip), vehicle: saline sonified 100 % of control | dose: 6.25 mg/kg/injection, schedule: Q04DX003 (ip), vehicle: Klucel (hydroxypropylcellulose) (HPC) 86 % of control | dose: 12.5 mg/kg/injection, schedule: Q01DX009 (ip), vehicle: saline sonified 101 % of control | dose: 12.5 mg/kg/injection, schedule: Q04DX003 (ip), vehicle: Klucel (hydroxypropylcellulose) (HPC) 86 % of control

Nc1ccccc1SC1CC(=O)N(c2ccc3c(c2)OCO3)C1=O (configuration not stated)
inactive: [4] 93 % of control | [5] 101 % of control | [6] 86 % of control

O=C(O)c1ccc(C(=O)O)c(O)c1
inactive: [1] 105 % of control | [2] 97 % of control | [3] 94 % of control

O=C(O)c1ccc2ccccc2n1.[Cu+2]
inactive: [1] 93 % of control

O=C(COc1ccc(Cl)cc1)Nc1cccc2ccccc12
inactive: [7] 87 % of control | [8] 93 % of control | [9] 101 % of control

CN(C)C(=S)SCC(=O)O
inactive: [4] 100 % of control | [5] 96 % of control | [6] 100 % of control

CC1(C)OC2OC(CO)C(O)C2O1 (configuration not stated)
inactive: [1] 101 % of control | [2] 97 % of control | [3] 98 % of control

S=c1nc[nH]c2c1ncn2Cc1ccc(Cl)c(Cl)c1
inactive: [8] 94 % of control | [9] 108 % of control

NC(CS)(CS)C(=O)O
inactive: dose: 15.0 mg/kg/injection, schedule: Q01DX015 (ip), vehicle: carboxymethylcellulose (CMC) 107 % of control | dose: 30.0 mg/kg/injection, schedule: Q01DX015 (ip), vehicle: carboxymethylcellulose (CMC) 113 % of control | dose: 60.0 mg/kg/injection, schedule: Q01DX015 (ip), vehicle: carboxymethylcellulose (CMC) 120 % of control

C1CCC(C2CCCC[N-]2)[N-]C1.[Cl][Cu][Cl] (configuration not stated)
inactive: dose: 1.56 mg/kg/injection, schedule: Q01DX009 (ip), vehicle: Klucel (hydroxypropylcellulose) (HPC) 95 % of control | dose: 3.13 mg/kg/injection, schedule: Q01DX009 (ip), vehicle: Klucel (hydroxypropylcellulose) (HPC) 102 % of control | dose: 6.25 mg/kg/injection, schedule: Q01DX009 (ip), vehicle: Klucel (hydroxypropylcellulose) (HPC) 86 % of control | [10] 109 % of control | [11] 95 % of control | [12] 101 % of control

COC(=O)c1ccc(OC(=S)N(C)C)cc1
inactive: [10] 93 % of control | [11] 98 % of control | [12] 95 % of control

O=C(NCCCCCCCCCCNC(=O)Nc1cccc(C2=NCC(O)CN2)c1)Nc1cccc(C2=NCC(O)CN2)c1 (configuration not stated)
inactive: dose: 5.25 mg/kg/injection, schedule: Q01DX Z (ip), vehicle: carboxymethylcellulose (CMC) 106 % of control | dose: 10.5 mg/kg/injection, schedule: Q01DX Z (ip), vehicle: carboxymethylcellulose (CMC) 117 % of control | dose: 21.0 mg/kg/injection, schedule: Q01DX Z (ip), vehicle: carboxymethylcellulose (CMC) 103 % of control | dose: 42.0 mg/kg/injection, schedule: Q01DX Z (ip), vehicle: carboxymethylcellulose (CMC) 97 % of control

O=C(NC/C(Br)=C/Br)Nc1c(Cl)cccc1Cl
inactive: dose: 100.0 mg/kg/injection, schedule: Q01DX001 (ip), vehicle: Klucel (hydroxypropylcellulose) (HPC) 94 % of control | [10] 96 % of control | dose: 200.0 mg/kg/injection, schedule: Q01DX001 (ip), vehicle: Klucel (hydroxypropylcellulose) (HPC) 91 % of control | [11] 89 % of control | dose: 400.0 mg/kg/injection, schedule: Q01DX001 (ip), vehicle: Klucel (hydroxypropylcellulose) (HPC) 91 % of control | [12] 93 % of control

CN(Cc1ccc(Cl)cc1)C(=S)Nc1ccccc1
inactive: [7] 114 % of control | [8] 92 % of control | [9] 96 % of control

CC1CN=C(c2ccc(NC(=O)c3ccc(C(=O)Nc4ccc(C5=NCC(C)N5)cc4)c(N)c3)cc2)N1 (configuration not stated)
inactive: dose: 15.0 mg/kg/injection, schedule: Q01DX Z (ip), vehicle: saline 92 % of control | dose: 30.0 mg/kg/injection, schedule: Q01DX Z (ip), vehicle: saline 86 % of control | dose: 62.5 mg/kg/injection, schedule: Q01DX010 (oral), vehicle: saline 100 % of control | dose: 125.0 mg/kg/injection, schedule: Q01DX010 (oral), vehicle: saline 100 % of control | dose: 250.0 mg/kg/injection, schedule: Q01DX010 (oral), vehicle: saline 101 % of control | dose: 500.0 mg/kg/injection, schedule: Q01DX010 (oral), vehicle: saline 105 % of control

O=C1C(F)=C(N2CC2)C(=O)C(N2CCOCC2)=C1N1CC1
inactive: dose: 0.39 mg/kg/injection, schedule: Q04DX003 (ip), vehicle: saline 94 % of control and 108 % of control | dose: 0.75 mg/kg/injection, schedule: Q01DX009 (ip), vehicle: saline 114 % of control and 122 % of control | dose: 0.78 mg/kg/injection, schedule: Q04DX003 (ip), vehicle: saline 100 % of control | dose: 1.5 mg/kg/injection, schedule: Q01DX009 (ip), vehicle: saline 111 % of control | dose: 1.56 mg/kg/injection, schedule: Q04DX003 (ip), vehicle: saline 102 % of control and 112 % of control | dose: 3.0 mg/kg/injection, schedule: Q01DX009 (ip), vehicle: saline 110 % of control and 112 % of control | dose: 3.12 mg/kg/injection, schedule: Q01DX001 (ip), vehicle: saline 91 % of control | dose: 3.12 mg/kg/injection, schedule: Q04DX003 (ip), vehicle: saline 105 % of control and 107 % of control | dose: 6.0 mg/kg/injection, schedule: Q01DX009 (ip), vehicle: saline 111 % of control | dose: 6.25 mg/kg/injection, schedule: Q01DX001 (ip), vehicle: saline 104 % of control | dose: 6.25 mg/kg/injection, schedule: Q04DX003 (ip), vehicle: saline 105 % of control and 121 % of control | dose: 12.5 mg/kg/injection, schedule: Q01DX001 (ip), vehicle: saline 92 % of control

N#Cc1nccc2ccccc12
inactive: [7] 106 % of control | [8] 103 % of control | [9] 100 % of control

CC(=O)Nc1ccc(S(N)(=O)=O)cc1
inactive: dose: 50.0 mg/kg/injection, schedule: Q01DX001 (ip), vehicle: carboxymethylcellulose (CMC) 95 % of control | dose: 100.0 mg/kg/injection, schedule: Q01DX001 (ip), vehicle: carboxymethylcellulose (CMC) 101 % of control | [13] 103 % of control | dose: 200.0 mg/kg/injection, schedule: Q01DX001 (ip), vehicle: carboxymethylcellulose (CMC) 95 % of control | dose: 400.0 mg/kg/injection, schedule: Q01DX001 (ip), vehicle: carboxymethylcellulose (CMC) 97 % of control

Cc1cccc2c(CCC(=O)O)c[nH]c12
inactive: [1] 100 % of control | [2] 94 % of control | [3] 94 % of control

OC1(c2ccncc2)CCc2ccccc21 (configuration not stated)
inactive: dose: 50.0 mg/kg/injection, schedule: Q01DX009 (ip), vehicle: Klucel (hydroxypropylcellulose) (HPC) 101 % of control | [13] 98 % of control | [10] 97 % of control | [14] 102 % of control | [11] 101 % of control

O=C(Nc1cccc(O)c1)Nc1ccc(Cl)cc1[N+](=O)[O-]
inactive: [13] 102 % of control | [14] 101 % of control
